Assay results: US7622490B2, “Broadspecturm 2-amino-benzoxazole sulfonamide HIV protease inhibitors” (Tibotec Pharmaceuticals, Ltd., priority 2001, dated 2009)

Legend:
Assay type in all cases: cell-based
HIV-1 strain LAI = test: Cellular anti-HIV assay (MTT) in MT4 cells, wild type strain; conditions: five days
Experimental: The compounds of the present invention were examined for anti-viral activity in a cellular assay. […] The cellular assay was performed according to the following procedure.
(§1) HIV- or mock-infected MT4 cells were incubated for five days in the presence of various concentrations of the inhibitor. At the end of the incubation period, all HIV-infected cells have been killed by the replicating virus in the control cultures in the absence of any inhibitor. Cell viability is measured by measuring the concentration of MTT, a yellow, water soluble tetrazolium dye that is converted to a purple, water insoluble formazan in the mitochondria of living cells only. Upon solubilization of the resulting formazan crystals with isopropanol, the absorbance of the solution is monitored at 540 nm. The values correlate directly to the number of living cells remaining in the culture at the completion of the five day incubation. The inhibitory activity of the compound was monitored on the virus-infected cells and was expressed as EC50 and EC90. […] Whetever results are reported as e.g. pEC50 or pCC50 values, the result is expressed as the negative logarithm of the result expressed as EC50 or CC50 respectively.
(§2) As a measure of the broad spectrum activity of the present compounds, the fold resistance (FR), defined as FR=EC50(mutant strain)/EC50(HIV-I strain LAI), was determined.

HIV strain A = test: Cellular anti-HIV assay, clinically isolated mutant strain A; conditions: FR=EC50(mutant strain)/EC50(HIV-I strain LAI); MT4 cells
Experimental: as §1, with “EC90. These values represent the amount of the compound required to protect 50% and 90%, respectively, of the cells from the cytopathogenic effect of the virus.” for “EC90.”, “respectively. […]” for “respectively.”
as §2

HIV strain B = test: Cellular anti-HIV assay, clinically isolated mutant strain B; conditions: FR=EC50(mutant strain)/EC50(HIV-I strain LAI); MT4 cells
Experimental: as §1, with “EC90. These values represent the amount of the compound required to protect 50% and 90%, respectively, of the cells from the cytopathogenic effect of the virus.” for “EC90.”, “respectively. […]” for “respectively.”
as §2

HIV strain C = test: Cellular anti-HIV assay, clinically isolated mutant strain C; conditions: FR=EC50(mutant strain)/EC50(HIV-I strain LAI); MT4 cells
Experimental: as §1, with “EC90. These values represent the amount of the compound required to protect 50% and 90%, respectively, of the cells from the cytopathogenic effect of the virus.” for “EC90.”, “respectively. […]” for “respectively.”
as §2

HIV strain D = test: Cellular anti-HIV assay, clinically isolated mutant strain D; conditions: FR=EC50(mutant strain)/EC50(HIV-I strain LAI); MT4 cells
Experimental: as §1, with “EC90. These values represent the amount of the compound required to protect 50% and 90%, respectively, of the cells from the cytopathogenic effect of the virus.” for “EC90.”, “respectively. […]” for “respectively.”
as §2

HIV strain E = test: Cellular anti-HIV assay, clinically isolated mutant strain E; conditions: FR=EC50(mutant strain)/EC50(HIV-I strain LAI); MT4 cells
Experimental: as §1, with “EC90. These values represent the amount of the compound required to protect 50% and 90%, respectively, of the cells from the cytopathogenic effect of the virus.” for “EC90.”, “respectively. […]” for “respectively.”
as §2

HIV strain F = test: Cellular anti-HIV assay, clinically isolated mutant strain F; conditions: FR=EC50(mutant strain)/EC50(HIV-I strain LAI); MT4 cells
Experimental: as §1, with “EC90. These values represent the amount of the compound required to protect 50% and 90%, respectively, of the cells from the cytopathogenic effect of the virus.” for “EC90.”, “respectively. […]” for “respectively.”
as §2

mock-infected MT4 cells = test: Toxicity on mock-infected MT4 cells (MTT); conditions: pCC50 value as determined with mock transfected cells; five days
Experimental: as §1, with “EC90. These values represent the amount of the compound required to protect 50% and 90%, respectively, of the cells from the cytopathogenic effect of the virus.” for “EC90.”
as §2

CNc1nc2ccc(S(=O)(=O)N(CC(C)C)CC(O)C(Cc3ccccc3)NC(=O)OC3COC4OCCNC34)cc2o1 (mixture of isomers) [Compound 43]
WT (pEC50) (HIV-1 strain LAI): 7.32 | FR value towards mutant A (HIV strain A): 3.3 | FR towards mutant B (HIV strain B): 1.6 | FR towards mutant C (HIV strain C): 0.8 | FR towards mutant D (HIV strain D): 0.62 | FR towards mutant E (HIV strain E): 0.59 | FR towards mutant F (HIV strain F): 14 | Tox (pCC50) (mock-infected MT4 cells): 4

CNc1nc2ccc(S(=O)(=O)N(CC(C)C)CC(O)C(Cc3ccccc3)NC(=O)OC3COC4OCCNC34)cc2o1 (mixture of isomers) [Compound 44]
WT (pEC50) (HIV-1 strain LAI): 7.36 | FR value towards mutant A (HIV strain A): 1.6 | FR towards mutant B (HIV strain B): 1.3 | FR towards mutant C (HIV strain C): 0.93 | FR towards mutant D (HIV strain D): 0.56 | FR towards mutant E (HIV strain E): 0.56 | FR towards mutant F (HIV strain F): 4.9 | Tox (pCC50) (mock-infected MT4 cells): 4
